Values after ≈ are worked out from the molar mass of the structure shown.
Key:
Assay in all cases: In vitro antibacterial evaluation: minimum inhibitory concentration (MIC), broth dilution method
Assay type in all cases: cell-based
Streptococcus sp. = conditions: 18 hours at 35° C.
Summary of the method: (§1)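 Broth dilution per NCCLS M7-A2 in Muller-Hinton II […], inoculum 5×10^5 CFU/mL, antibiotic tested over 64-0.06 μg/mL. MIC is taken as the lowest concentration that inhibits growth. Panel includes recent clinical isolates resistant to methicillin, penicillin and/or vancomycin.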

Enterococcus sp. = test system: Enterococcus sp.
Summary of the method: as §1

Staphylococcus sp. = conditions: 18 hours at 35° C.
Summary of the method: as §1

Escherichia coli [1] = test system: Escherichia coli
Summary of the method: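 An MIC is reported for each organism as the least concentration giving inhibition, using broth dilution over 64-0.06 μg/mL with a 5×10^5 CFU/mL inoculum.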

Escherichia coli [2] = test system: Escherichia coli; remark: listed apart in the source

| MIC Streptococcus agalactiae (GC 4564) (Streptococcus sp.) [µg/mL] | MIC Enterococcus avium (GC 4558) (Enterococcus sp.) [µg/mL] | MIC Enterococcus faecalis (ATCC 29212) (Enterococcus sp.) [µg/mL] | MIC Enterococcus faecalis (GC 2242) (Enterococcus sp.; 18 hours at 35° C.) [µg/mL] | MIC Enterococcus faecalis (GC 4552) (Enterococcus sp.; 18 hours at 35° C.) [µg/mL] | MIC Enterococcus faecalis (GC 4553) (Enterococcus sp.) [µg/mL] | MIC Enterococcus faecalis (GC 4554) (Enterococcus sp.) [µg/mL] | MIC Enterococcus faecium (GC 2243) (Enterococcus sp.) [µg/mL] | MIC Enterococcus faecium (GC 4556) (Enterococcus sp.) [µg/mL] | MIC Enterococcus faecium (GC 4557) (Enterococcus sp.) [µg/mL] | MIC Coagulase Negative Staphylococcus (GC 4547) (Staphylococcus sp.) [µg/mL] | MIC Coagulase Negative Staphylococcus (GC 4548) (Staphylococcus sp.) [µg/mL] | MIC Coagulase Negative Staphylococcus (GC 4549) (Staphylococcus sp.) [µg/mL] | MIC Coagulase Negative Staphylococcus (GC 4551) (Staphylococcus sp.) [µg/mL] | MIC Staphylococcus aureus (ATCC 29213) (Staphylococcus sp.) [µg/mL] | MIC Staphylococcus aureus (GC 1131) (Staphylococcus sp.) [µg/mL] | MIC Staphylococcus aureus (GC 4541) (Staphylococcus sp.) [µg/mL] | MIC Staphylococcus aureus (GC 4542) (Staphylococcus sp.) [µg/mL] | MIC Staphylococcus aureus (GC 4544) (Staphylococcus sp.) [µg/mL] | MIC Staphylococcus aureus (GC 4545) (Staphylococcus sp.) [µg/mL] | Structure (SMILES) | also measured |
| --- | --- | --- | --- | --- | --- | --- | --- | --- | --- | --- | --- | --- | --- | --- | --- | --- | --- | --- | --- | --- | --- |
| 1 (≈ 0.7 µM) | 0.5 (≈ 0.35 µM) | 0.5 (≈ 0.35 µM) | 0.5 (≈ 0.35 µM) | >0.5 | 0.5 (≈ 0.35 µM) | >0.5 | 16 (≈ 11.2 µM) | 16 (≈ 11.2 µM) | 2 (≈ 1.4 µM) | 2 (≈ 1.4 µM) | 2 (≈ 1.4 µM) | 2 (≈ 1.4 µM) | 4 (≈ 2.8 µM) | 0.5 (≈ 0.35 µM) | 0.5 (≈ 0.35 µM) | 0.5 (≈ 0.35 µM) | 0.5 (≈ 0.35 µM) | 0.5 (≈ 0.35 µM) | 0.5 (≈ 0.35 µM) | CC(c1ccccc1)C1NC(=O)CNC(=O)C(CO)NC(=O)C(C(O)C2CNC(=N)N2C2OC(CO)C(O)C(O)C2O)NC(=O)C(C(O)C2CNC(=N)N2)NC(=O)C(Cc2ccc(OC3OC(CO)C(OC4OC(COC(=O)NCc5ccccc5)C(O)C(O)C4O)C(O)C3O)cc2)NC1=O (stereo not drawn) [Example 257b, γ-O-[(Benzylamino)carbonyl]-cyclo[glycyl-β-methylphenylalanyl-O-(4-O-hexopyranosylhexopyranosyl)tyrosyl-3-(2-iminoimidazolidin-4-yl)seryl-3-(3-hexopyranosyl-2-iminoimidazolidin-4-yl)serylseryl]] | MIC Streptococcus pneumoniae (ATCC 6301) (Streptococcus sp.; Streptococcus pneumoniae (ATCC 6301)): 0.25 µg/mL (≈ 0.175 µM); MIC Streptococcus pneumoniae (GC 1894) (Streptococcus sp.; Streptococcus pneumoniae (GC 1894)): 0.25 µg/mL (≈ 0.175 µM); MIC Streptococcus pneumoniae (GC 4565) (Streptococcus sp.; Streptococcus pneumoniae (GC 4565)): 0.5 µg/mL (≈ 0.35 µM); MIC Streptococcus pyogenes (GC 4563) (Streptococcus sp.; Streptococcus pyogenes (GC 4563)): 0.12 µg/mL (≈ 0.084 µM); MIC Enterococcus faecalis (GC 2691) (Enterococcus sp.; Enterococcus faecalis (GC 2691), 18 hours at 35° C.): 0.5 µg/mL (≈ 0.35 µM); MIC Enterococcus faecalis (GC 3059) (Enterococcus sp.; Enterococcus faecalis (GC 3059), 18 hours at 35° C.): 0.5 µg/mL (≈ 0.35 µM); MIC Enterococcus faecalis (GC 6189) (Enterococcus sp.; Enterococcus faecalis (GC 6189)): 0.5 µg/mL (≈ 0.35 µM); MIC Coagulase Negative Staphylococcus (GC 6257) (Staphylococcus sp.; Coagulase Negative Staphylococcus (GC 6257)): 1 µg/mL (≈ 0.7 µM); MIC Staphylococcus aureus (GC 3051) (Staphylococcus sp.; Staphylococcus aureus (GC 3051)): 0.5 µg/mL (≈ 0.35 µM); MIC Staphylococcus aureus (GC 3053) (Staphylococcus sp.; Staphylococcus aureus (GC 3053)): 0.5 µg/mL (≈ 0.35 µM); MIC Staphylococcus aureus-SMITH (GC 4543) (Staphylococcus sp.): 0.5 µg/mL (≈ 0.35 µM); MIC Staphylococcus haemolyticus (GC 4546) (Staphylococcus sp.): 2 µg/mL (≈ 1.4 µM); MIC Escherichia coli (GC 4559) (Escherichia coli [1]): >0.5 µg/mL; MIC Escherichia coli (GC 4560) (Escherichia coli [1]): 0.5 µg/mL (≈ 0.35 µM); MIC Escherichia coli (ATCC 25922) (Escherichia coli [2]): >0.5 µg/mL |
| >64 | >64 | >64 | >64 | >64 | >64 | >64 | >64 | >64 | >64 | >64 | >64 | >64 | >64 | >64 | >64 | >64 | >64 | >64 | >64 | CC(c1ccc(F)cc1)C1NC(=O)CNC(=O)C(CO)NC(=O)C(C(O)C2CNC(=N)N2C2OC(CO)C(O)C(O)C2O)NC(=O)C(C(O)C2CNC(=N)N2)NC(=O)C(Cc2ccc(OC3OC(CO)C(OC4OC(CO)C(O)C(O)C4O)C(O)C3O)cc2)NC1=O (stereo not drawn) [Example 261a, Cyclo[glycyl-4-fluoro-β-methylphenylalanyl-O-(4-O-hexopyranosylhexopyranosyl)tyrosyl-3-(2-iminoimidazolidin-4-yl)seryl-3-(3-hexopyranosyl-2-iminoimidazolidin-4-yl)serylseryl]] | MIC Streptococcus pyogenes (ID-3187) (Streptococcus sp.): >64 µg/mL; MIC Staphylococcus aureus-SMITH (GC 4543) (Staphylococcus sp.): >64 µg/mL; MIC Staphylococcus haemolyticus (GC 4546) (Staphylococcus sp.): >64 µg/mL; MIC Escherichia coli (GC 4559) (Escherichia coli [1]): >64 µg/mL; MIC Escherichia coli (GC 4560) (Escherichia coli [1]): >64 µg/mL; MIC Escherichia coli (ATCC 25922) (Escherichia coli [2]): >64 µg/mL |
| 8 (≈ 5.72 µM) | 64 (≈ 45.8 µM) | >64 | 64 (≈ 45.8 µM) | 64 (≈ 45.8 µM) | 64 (≈ 45.8 µM) | >64 | >64 | 64 (≈ 45.8 µM) | 16 (≈ 11.4 µM) | 8 (≈ 5.72 µM) | 4 (≈ 2.86 µM) | 4 (≈ 2.86 µM) | 8 (≈ 5.72 µM) | 8 (≈ 5.72 µM) | 16 (≈ 11.4 µM) | 16 (≈ 11.4 µM) | 16 (≈ 11.4 µM) | 8 (≈ 5.72 µM) | 16 (≈ 11.4 µM) | CC(C)CC(=O)OC1C(OC2C(CO)OC(Oc3ccc(CC4NC(=O)C(C(C)c5ccc(F)cc5)NC(=O)CNC(=O)C(CO)NC(=O)C(C(O)C5CNC(=N)N5C5OC(CO)C(O)C(O)C5O)NC(=O)C(C(O)C5CNC(=N)N5)NC4=O)cc3)C(O)C2O)OC(CO)C(O)C1O (stereo not drawn) [Example 261b, Cyclo[glycyl-4-fluoro-β-methylphenylalanyl-O-[4-O-[2-O-(3-methylbutanoyl)hexopyranosyl]-hexopyranosyl]tyrosyl-3-(2-iminoimidazolidin-4-yl)seryl-3-(3-hexopyranosyl-2-imino-imidazolidin-4-yl)serylseryl]] | MIC Streptococcus pyogenes (ID-3187) (Streptococcus sp.): 4 µg/mL (≈ 2.86 µM); MIC Staphylococcus aureus-SMITH (GC 4543) (Staphylococcus sp.): 8 µg/mL (≈ 5.72 µM); MIC Staphylococcus haemolyticus (GC 4546) (Staphylococcus sp.): 8 µg/mL (≈ 5.72 µM); MIC Escherichia coli (GC 4559) (Escherichia coli [1]): >64 µg/mL; MIC Escherichia coli (GC 4560) (Escherichia coli [1]): 4 µg/mL (≈ 2.86 µM); MIC Escherichia coli (ATCC 25922) (Escherichia coli [2]): >64 µg/mL |
